The source of these data is US12649942B2, “Carotenoids for treating or preventing nausea” (priority 2019, dated 2026).

Assay [1] deals with pgp-5p::gfp. In words: pgp-5p::gfp induction in eft-3(q145);pgp-5p::gfp animals (translation deficit). It counts as in vivo, C. elegans. The settings on record: vs mock-treated.
Assay [2] has as its system pgp-5p::gfp. Put plainly: pgp-5p::gfp induction in response to hygromycin, emetine or cisplatin. It counts as in vivo, C. elegans. The settings on record: animals fed E. coli OP50; hygromycin 10 μg/ml, emetine 6.25 μg/ml, cisplatin 1 mM.
Protocol: Hygromycin diluted in M9 solution to the desired concentration was added onto E. coli OP50 bacteria containing NGM plates. […] For the xenobiotic experiments, synchronized L1-stage animals were dropped onto the drug containing plates and scored 4 days later.
For a further assay, the system named is C. elegans. In words: food aversion behavior. The settings on record: for food aversion induced by the drug: in vivo. Format: in vivo. As for the experimental part:
In some embodiments, a food aversion assay as described herein is used. In some embodiments, a test sample is, or is derived from (e.g., a sample taken from) an in vivo model of a disorder as described herein. For example, a test compound is applied to a test sample comprising one or more C. elegans organisms, and one or more effects of the test compound is evaluated. For example, the ability of a test compound to counteract food aversion in the presence of a chemotherapeutic agent or other nausea-inducing stimulus can be tested. Alternatively, effects on a reporter gene, e.g., ABC transporter gene fusion pgp-5p::gfp, can be evaluated by detecting alterations in GFP fluorescence. As one of skill in the art will appreciate, other reporters could readily be used.
C. elegans food aversion behaviors are induced when animals are exposed to xenobiotics or essential gene inactivations (Melo and Ruvkun, 2012). […] While ˜40% of animals exposed to 25 μg/ml hygromycin display food aversion behavior, ˜15% of animals exposed to 25 μg/ml hygromycin and K. rhizophila carotenoid extract show aversion (FIG. 3E). Similar results were obtained with cisplatin: ˜50% of animals exposed to 1 mM cisplatin display aversion behavior while <20% of animals exposed to 1 mM cisplatin and K. rhizophila carotenoid extract display food aversion (FIG. 3F).

[3] abbreviates: animals on E. coli OP50 treated with the substance, screened after 50 hours at 20° C.
The mark [4] stands for this setting: animals fed on E. coli expressing the carotenoid.

As for `CC(=O)N[C@@H](CS)C(=O)O` [N-acetyl cysteine], in the assay with pgp-5p::gfp [1] (setting [3]), the “induction of pgp-5p::gfp” value is “not significantly different”.

In the case of `CC1=CCCC(C)(C)C1/C=C/C(C)=C/C=C/C(C)=C/C=C/C=C(C)/C=C/C=C(C)/C=C/C1=C(C)CCCC1(C)C` (stereo not drawn) [alpha-carotene], in the assay on pgp-5p::gfp [1] (setting [4]), the “induction of pgp-5p::gfp” value is “not significantly different”.

`CC1=C(/C=C/C(C)=C/C=C/C(C)=C/C=C/C=C(C)/C=C/C=C(C)/C=C/C2=C(C)C(=O)[C@@H](O)CC2(C)C)C(C)(C)C[C@H](O)C1=O` [astaxanthin]: the “induction of pgp-5p::gfp” value in the assay on pgp-5p::gfp [1] (setting [3]) is reported as “not significantly different”.

For `CC1=C(/C=C/C(C)=C/C=C/C(C)=C/C=C/C=C(C)/C=C/C=C(C)/C=C/C2=C(C)CCCC2(C)C)C(C)(C)CCC1` [beta-carotene], the “induction of pgp-5p::gfp” value in the assay with pgp-5p::gfp [1] (setting [3]) is reported as “not significantly different”.

`N.N.[Cl][Pt][Cl]` [cisplatin]: the “pgp-5p::gfp expression induced by the drug” value in the assay with pgp-5p::gfp [2] is on record as “induces pgp-5p::gfp expression”. Moreover, the “animals that display aversion behavior” value in the assay on C. elegans (1 mM cisplatin, no extract) was roughly 50%. For the same compound, in the assay with C. elegans, the “food aversion induced by the drug” value was “strong food aversion”.

In the case of `CC(C)=CCC/C(C)=C/C=C/C(C)=C/C=C/C(C)=C/C=C/C=C(C)/C=C/C=C(C)/C=C/C1C(C)=CCCC1(C)C` (stereo not shown) [delta-carotene], the “induction of pgp-5p::gfp” value in the assay on pgp-5p::gfp [1] (setting [4]) is on record as “not significantly different”.

Take `CC[C@H]1CN2CCc3cc(OC)c(OC)cc3[C@@H]2C[C@@H]1C[C@H]1NCCc2cc(OC)c(OC)cc21` [emetine]: the “food aversion induced by the drug” value in the assay with C. elegans was “strong food aversion”.

In the case of `CC(C)=CCC/C(C)=C/C=C/C(C)=C/C=C/C(C)=C/C=C/C=C(C)/C=C/C=C(\C)CC/C=C(\C)CCC=C(C)C` [neurosporene], in the assay on pgp-5p::gfp [1] (setting [4]), the “induction of pgp-5p::gfp” value is recorded as “not significantly different”.

For `Cc1c(C)c2c(c(C)c1O)CCC(C)(C(=O)O)O2` (stereo not shown) [trolox], the “induction of pgp-5p::gfp” value with pgp-5p::gfp [1] (setting [3]) is given as “not significantly different”.

On to `CC(/C=C/C=C(C)/C=C/[C@@]12O[C@]1(C)C[C@@H](O)CC2(C)C)=C\C=C\C=C(C)\C=C\C=C(C)\C=C\[C@@]12O[C@]1(C)C[C@@H](O)CC2(C)C` [violaxanthin], for which the “induction of pgp-5p::gfp” value in the assay with pgp-5p::gfp [1] (setting [4]) is “not significantly different”.

As for `CC1=C(/C=C/C(C)=C/C=C/C(C)=C/C=C/C=C(C)/C=C/C=C(C)/C=C/C2=C(C)C[C@@H](O)CC2(C)C)C(C)(C)C[C@H](O)C1` [zeaxanthin], the “induction of pgp-5p::gfp” value with pgp-5p::gfp [1] (setting [4]) was “not significantly different”.
